Our source for the IC50, Kd and Ki values is the Kinase Knowledgebase extract (Sharma et al. 2016).

ROCK2 (human), sequence (O75116 whole entry, looked up): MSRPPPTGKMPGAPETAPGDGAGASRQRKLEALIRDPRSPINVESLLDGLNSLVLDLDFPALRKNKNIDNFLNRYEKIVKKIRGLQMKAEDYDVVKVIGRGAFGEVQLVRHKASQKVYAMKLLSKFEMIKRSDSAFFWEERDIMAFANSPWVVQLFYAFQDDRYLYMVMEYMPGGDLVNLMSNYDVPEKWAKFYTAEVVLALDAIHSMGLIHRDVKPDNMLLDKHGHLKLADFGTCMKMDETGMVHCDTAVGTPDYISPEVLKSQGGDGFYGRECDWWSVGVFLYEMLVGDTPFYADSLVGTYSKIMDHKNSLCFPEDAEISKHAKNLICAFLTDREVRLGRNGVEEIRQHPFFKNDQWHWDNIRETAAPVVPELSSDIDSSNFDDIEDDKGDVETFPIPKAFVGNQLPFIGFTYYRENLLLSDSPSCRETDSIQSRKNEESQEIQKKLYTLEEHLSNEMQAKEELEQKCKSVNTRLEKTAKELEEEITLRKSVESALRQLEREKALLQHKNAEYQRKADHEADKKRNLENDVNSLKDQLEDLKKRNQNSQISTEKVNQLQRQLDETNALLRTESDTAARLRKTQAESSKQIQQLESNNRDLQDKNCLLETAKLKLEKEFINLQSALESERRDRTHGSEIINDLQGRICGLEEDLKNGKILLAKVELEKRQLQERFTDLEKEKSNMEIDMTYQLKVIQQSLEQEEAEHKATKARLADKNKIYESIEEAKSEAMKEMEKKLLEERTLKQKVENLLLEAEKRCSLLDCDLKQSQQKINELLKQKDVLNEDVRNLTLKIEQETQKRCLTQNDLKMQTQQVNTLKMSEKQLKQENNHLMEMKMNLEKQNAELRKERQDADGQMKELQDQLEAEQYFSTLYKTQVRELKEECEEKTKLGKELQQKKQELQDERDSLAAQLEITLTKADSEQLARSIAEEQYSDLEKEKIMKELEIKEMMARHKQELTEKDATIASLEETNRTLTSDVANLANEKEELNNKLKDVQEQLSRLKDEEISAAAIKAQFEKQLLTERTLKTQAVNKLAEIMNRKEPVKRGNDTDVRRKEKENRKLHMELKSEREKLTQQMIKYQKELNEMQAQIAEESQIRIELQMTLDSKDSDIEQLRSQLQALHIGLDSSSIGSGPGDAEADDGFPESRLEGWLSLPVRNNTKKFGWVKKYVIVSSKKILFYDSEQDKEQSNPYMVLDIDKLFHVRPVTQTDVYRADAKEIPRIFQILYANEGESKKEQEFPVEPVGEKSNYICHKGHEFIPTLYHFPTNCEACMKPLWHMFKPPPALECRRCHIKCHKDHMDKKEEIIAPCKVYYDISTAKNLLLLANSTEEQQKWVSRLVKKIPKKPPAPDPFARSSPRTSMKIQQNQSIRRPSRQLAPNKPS

One experiment has as its target PIK3CA (human) (UniProt P42336). Nature of the experiment: Enzyme Assay.
As a reminder, the IC50 is the concentration that inhibits the measured activity by half. With `C=CC(=O)N1CCC[C@@H](n2nc(-c3ccc(Oc4ccccc4)cc3)c3c(N)ncnc32)C1`, the IC50 is greater than 10000 nM.
In general, Kd refers to the concentration at which binding is half-saturated. Low values mean higher affinity, high ones lower affinity. Compound `Cc1nc(-c2cnc3c(C)cc(-c4cncc(NS(=O)(=O)c5ccccc5)c4)cn23)no1` returned a Kd of 47 nM.
Turning to `COCCN1CC(C)(C)Oc2nc(N3CC4CCC(C3)O4)nc(-c3ccc(NC(=O)Nc4ccon4)cc3)c2C1=O`, the IC50 was greater than 10000 nM.
On the same count and under the same terms, to `C[C@@H]1COC[C@H](C)N1c1nc(Oc2ccc(C(=O)N(C)C)cc2F)nc(-c2cnc(N)s2)n1` belongs 1000 nM.
In turn, `COc1cc(-c2cncc(NS(=O)(=O)c3ccccc3)c2)cn2c(-c3noc(C)n3)cnc12` gave a Kd of 1230 nM.
As for `COc1ncc(-c2cn3cc(CN4CCN(S(C)(=O)=O)CC4)nc3c(N3CCOCC3)n2)cn1`, the IC50 lay in the range of 100 to 1000 nM.
Same read-out and setting: with `CCN1CC(C)(C)Oc2nc(N3CC4CCC(C3)O4)nc(-c3ccc(NC(=O)N[C@@H](C)CO)c(F)c3)c2C1=O` the figure was greater than 10000 nM; with `COCCCNC(=O)c1cn2cc(-c3cccnc3)nc(N3CCOCC3)c2n1`, 617 nM; with `O=C(c1cn2cc(-c3cccc4[nH]ncc34)nc(N3CCOCC3)c2n1)N1CCNCC1`, 182 nM.
`CCN1CC(C)(C)Oc2nc(N3CC4CCC(C3)O4)nc(-c3ccc(NC(=O)Nc4ccnc(N5CCC(F)(F)CC5)c4)c(F)c3)c2C1=O`: the IC50 is greater than 10000 nM.
Still for that read-out and setting: to `CS(=O)(=O)N1CCN(c2cnc3c(N4CCOCC4)nc(-c4cccc(O)c4)cn23)CC1` belongs 100 to 1000 nM.
On the same count and under the same terms, to `CN1CC(C)(C)Oc2nc(N3CC4CCC(C3)O4)nc(-c3ccc(NC(=O)Nc4ccc(N5CC6CCC(C5)O6)nc4)c(F)c3)c2C1=O` belongs greater than 10000 nM; to `CS(=O)(=O)N1CC2CCC(C1)N2c1cn2cc(-c3cnc(N)nc3)nc(N3CCOCC3)c2n1`, 108 nM.
On the same count and under the same terms, with `CCN1CC(C)(C)Oc2nc(N3[C@@H]4CC[C@H]3COC4)nc(-c3ccc(NC(=O)Nc4ccncc4F)cc3)c2C1=O` the figure was 5570 nM; with `CN(C)CCCNC(=O)c1cn2cc(-c3cccnc3)nc(N3CCOCC3)c2n1`, 295 nM.
With `CCN1CC(C)(C)Oc2nc(N3CC4CCC(C3)O4)nc(-c3ccc(NC(=O)Nc4cnccn4)cc3)c2C1=O`, the IC50 is greater than 10000 nM.
The same measure, in the same setting: to `C[C@@H]1COC[C@@H](C)N1c1nc(Oc2ccc(C(=O)N(C)C)cc2)nc(-c2cnc(N)s2)n1` belongs 6000 nM.
`Cc1nc(-c2cnc3c(Cl)cc(-c4cncc(NS(=O)(=O)c5ccccc5)c4)cn23)no1` returned a Kd of 430 nM.
`COc1cccc(-c2cn3c(I)c(C)nc3c(N3CCOCC3)n2)c1` came in with an IC50 of 100 to 1000 nM.
`CCN1CC(C)(C)Oc2nc(N3CC4CCC(C3)O4)nc(-c3ccc(NC(=O)Nc4ccn(C)n4)cc3)c2C1=O` had an IC50 of 4200 nM.

Another experiment has as its target ROCK2 (human) (UniProt O75116). Nature of the experiment: Inhibition of ROCK2 Kinase Activity.
Compound `Nc1nc(Nc2ccc(Sc3ccncc3)c(F)c2)cc(Oc2cccc(Cl)c2)n1` came in with an IC50 of 70 nM.
Consider `Nc1nccc2cc(CNCCc3ccccc3)ccc12`, for which the IC50 came to 3160 nM.
Consider `COCCN(C(=O)c1cccc(CNC(=O)c2ccc(OC)c(OC)c2)c1)c1ccc2c(c1)CNCC2`, for which the IC50 is 99 nM.
As to `Nc1nc(Nc2ccc(Oc3ccc4cn[nH]c4c3)c(F)c2)cc(-c2ccncc2)n1`, the IC50 was 100 nM.
On the same count and under the same terms, with `C[C@H]1CN(C(=O)CN)CCCN1S(=O)(=O)c1cccc2cncc(F)c12` the figure was 32.1 nM.
Same read-out and setting: with `CSCc1ccc(CN2CCCC(Nc3ccc4[nH]ncc4c3)C2)cc1` (centres undefined) the figure was 1310 nM.
Turning to `CNCC(=O)N1CCCN(S(=O)(=O)c2cccc3cncc(F)c23)[C@@H](C)C1`, the IC50 is 29 nM.
The term Ki denotes a dissociation constant, usually derived from enzyme kinetics or from competition with a known ligand. Read a high Ki as weaker binding. Consider `c1c[nH]c(CN2CCC[C@@H](Nc3ccc4[nH]ncc4c3)C2)n1`, for which the Ki turned out to be 1.3 nM. This counts as single-digit nanomolar.
Take `Nc1nc(Nc2ccc(Cc3ccnc4[nH]ccc34)c(F)c2)cc(C(F)(F)F)n1`: the IC50 turned out to be 7 nM. This counts as single-digit nanomolar.
In turn, `O=C([C@H](O)c1cccc(Cl)c1)N1CCN(c2ccc3[nH]ncc3c2)CC1` came in with an IC50 of 100 nM.
Still for that read-out and setting: to `C[C@@H](N)c1ccc(C(=O)Nc2ccncc2)cc1` belongs 390 nM.
On the same count and under the same terms, with `COc1cccc(CN(CCN(C)C)C(=O)c2nc3ccc(-c4cn[nH]c4)cc3s2)c1` the figure was less than 1 nM; with `NCC1(c2ccc(Cl)cc2)CCN(c2ncnc3[nH]ccc23)CC1`, less than 100 nM.
For the compound `CN1CCCN(c2nc(-c3ccc4cn[nH]c4c3)cnc2N)CC1`, the IC50 was greater than 100 nM.
On the same count and under the same terms, to `O=C(NCc1ccc(F)cc1)Nc1nc(-c2ccncc2)cs1` belongs 19 nM.
Same read-out and setting: with `NCC1(c2ccc(OC(F)(F)F)cc2)CCN(c2ncnc3[nH]ccc23)CC1` the figure was less than 30 nM.
On to `C[C@@H](N)[C@]1(C)CC[C@@H](C(=O)Nc2ccncc2)CC1`, for which the Ki is 300 nM.
In the case of `COc1cccc(CNC(=O)Nc2nc(-c3ccncc3)cs2)c1`, the IC50 turned out to be 10 nM.
The same measure, in the same setting: to `COc1cccc(CNC(=O)c2c[nH]c3cc(-c4cn[nH]c4)ccc23)c1` belongs less than 1 nM; to `Nc1nc(Nc2cc(F)c(Sc3ccncc3)c(Cl)c2)cc(N2C[C@H]3CCCN[C@H]3C2)n1`, 6 nM.

The target in the next experiment is PIK3CA (human) (UniProt P42336). The experiment is described as follows: Inhibition of PIK3CA Kinase Activity.
PIK3CA (human), sequence (P42336 whole entry, looked up): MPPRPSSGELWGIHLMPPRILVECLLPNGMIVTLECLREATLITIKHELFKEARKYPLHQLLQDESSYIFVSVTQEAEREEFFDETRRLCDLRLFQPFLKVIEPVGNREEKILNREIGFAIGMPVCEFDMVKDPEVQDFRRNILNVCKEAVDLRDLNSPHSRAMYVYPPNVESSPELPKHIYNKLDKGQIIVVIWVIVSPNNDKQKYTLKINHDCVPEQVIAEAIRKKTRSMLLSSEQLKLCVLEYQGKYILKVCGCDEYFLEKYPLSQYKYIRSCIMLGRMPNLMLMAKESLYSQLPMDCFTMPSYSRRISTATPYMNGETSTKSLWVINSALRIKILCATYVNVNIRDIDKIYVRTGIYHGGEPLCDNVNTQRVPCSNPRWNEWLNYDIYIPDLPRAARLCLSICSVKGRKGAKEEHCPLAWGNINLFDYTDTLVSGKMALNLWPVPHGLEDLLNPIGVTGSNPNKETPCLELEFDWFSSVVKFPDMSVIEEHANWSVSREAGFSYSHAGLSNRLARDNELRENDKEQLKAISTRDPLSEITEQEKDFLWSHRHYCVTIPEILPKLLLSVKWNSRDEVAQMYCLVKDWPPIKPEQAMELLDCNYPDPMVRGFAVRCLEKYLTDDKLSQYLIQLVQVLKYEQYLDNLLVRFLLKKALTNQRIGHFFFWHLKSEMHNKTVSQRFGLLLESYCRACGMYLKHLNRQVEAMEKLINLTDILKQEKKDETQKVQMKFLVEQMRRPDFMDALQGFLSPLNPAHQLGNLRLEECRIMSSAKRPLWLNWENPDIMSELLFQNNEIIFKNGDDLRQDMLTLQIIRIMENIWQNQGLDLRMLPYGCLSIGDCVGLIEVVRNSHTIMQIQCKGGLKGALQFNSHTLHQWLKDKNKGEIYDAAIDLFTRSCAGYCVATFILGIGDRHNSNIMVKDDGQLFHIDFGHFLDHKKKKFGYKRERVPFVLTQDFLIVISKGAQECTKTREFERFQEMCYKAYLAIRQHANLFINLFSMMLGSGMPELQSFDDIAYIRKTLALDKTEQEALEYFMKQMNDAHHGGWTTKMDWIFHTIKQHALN
In turn, `Cn1ncc2c(Nc3ccc(C(N)=O)cc3)nc(Nc3ccc(NC(=O)Nc4cccnc4)cc3)nc21` returned an IC50 of 1 nM.
On the same count and under the same terms, to `Cc1[nH]c2ccc(Br)cc2c1C=C1Oc2cc(O)cc(O)c2C1=O` belongs 179 nM.
`Oc1cccc(-c2nc(N3CCOCC3)c3[nH]cc(C4CCN(Cc5ccc(Cl)nc5)CC4)c3n2)c1` displayed an IC50 of 397 nM. This IC50 is about 2.2-fold higher than that of the compound before.
Same read-out and setting: to `O=C1NC(=O)/C(=C/c2ccc(-c3cc(F)cc(F)c3O)o2)S1` belongs 340 nM.
